≈ marks a conversion by molar mass, not a printed value. Blank lines part the entries; values can stand above or below the compound they belong to.
Columns and labels:
Type in all cases: functional
Pseudomonas aeruginosa [1] = assay: Antibacterial activity against IMP-13 producing Pseudomonas aeruginosa clone C3 isolate PG-12X-03 by Etest method
Pseudomonas aeruginosa [2] = assay: Antibacterial activity against IMP-13 producing Pseudomonas aeruginosa clone C1 isolate AV-13X-28 by Etest method
Pseudomonas aeruginosa [3] = assay: Antibacterial activity against VIM-1 producing Pseudomonas aeruginosa clone A3 isolate FG-17X-08 by Etest method
Pseudomonas aeruginosa [4] = assay: Antibacterial activity against metallo-beta-lactamase positive Pseudomonas aeruginosa assessed as percent susceptible isolates by Etest method
Pseudomonas aeruginosa [5] = assay: Antibacterial activity against VIM-1 producing Pseudomonas aeruginosa clone A1 isolate FG-17X-14 by Etest method
Pseudomonas aeruginosa [6] = assay: Antibacterial activity against VIM-1 producing Pseudomonas aeruginosa clone D3 isolate VA-06X-65 by Etest method
Pseudomonas aeruginosa [7] = assay: Antibacterial activity against VIM-2 producing Pseudomonas aeruginosa clone B2 isolate VA-06X-20 by Etest method
Pseudomonas aeruginosa [8] = assay: Antibacterial activity against VIM-2 producing Pseudomonas aeruginosa clone B3 isolate PV-05X-07 by Etest method
Pseudomonas aeruginosa [9] = assay: Antibacterial activity against IMP-13 producing Pseudomonas aeruginosa clone C2 isolate NA-14X-12 by Etest method
Pseudomonas aeruginosa [10] = assay: Antibacterial activity against VIM-2 producing Pseudomonas aeruginosa clone B1 isolate SS-09X-45 by Etest method
Pseudomonas aeruginosa [11] = assay: Antibacterial activity against VIM-2 producing Pseudomonas aeruginosa clone B2 isolate VA-06X-28 by Etest method
Pseudomonas aeruginosa [12] = assay: Antibacterial activity against VIM-1 producing Pseudomonas aeruginosa clone E isolate VA-06X-29 by Etest method
Pseudomonas aeruginosa [13] = assay: Antibacterial activity against IMP-13 producing Pseudomonas aeruginosa clone C2 isolate NA-14X-10 by Etest method
Pseudomonas aeruginosa [14] = assay: Antibacterial activity against VIM-2 producing Pseudomonas aeruginosa clone B3 isolate CR-04X-14 by Etest method
Enterobacter cloacae [15] = assay: Antibacterial activity against VIM-1 producing Enterobacter cloacae isolate TO-16X-51 by Etest method
Pseudomonas aeruginosa [16] = assay: Antibacterial activity against IMP-13 producing Pseudomonas aeruginosa clone C2 isolate NA-14X-11 by Etest method
Pseudomonas putida [17] = assay: Antibacterial activity against VIM-1 producing Pseudomonas putida isolate RM-11X-11 by Etest method
Pseudomonas aeruginosa [18] = assay: Antibacterial activity against VIM-1 producing Pseudomonas aeruginosa clone D4 isolate VA-06X-47 by Etest method
Pseudomonas aeruginosa [19] = assay: Antibacterial activity against VIM-1 producing Pseudomonas aeruginosa clone D1 isolate VA-06X-63 by Etest method
Pseudomonas aeruginosa [20] = assay: Antibacterial activity against VIM-1 producing Pseudomonas aeruginosa clone A2 isolate NA-14X-21 by Etest method
Pseudomonas aeruginosa [21] = assay: Antibacterial activity against VIM-1 producing Pseudomonas aeruginosa clone A2 isolate NA-14X-32 by Etest method
Pseudomonas aeruginosa [22] = assay: Antibacterial activity against VIM-1 producing Pseudomonas aeruginosa clone G isolate NA-14X-13 by Etest method
Pseudomonas aeruginosa [23] = assay: Antibacterial activity against VIM-1 producing Pseudomonas aeruginosa clone F isolate RM-11X-09 by Etest method
Pseudomonas aeruginosa [24] = assay: Antibacterial activity against VIM-1 producing Pseudomonas aeruginosa clone D isolate VA-06X-69 by Etest method
Pseudomonas aeruginosa [25] = assay: Antibacterial activity against VIM-1 producing Pseudomonas aeruginosa clone A2 isolate NA-14X-26 by Etest method
Pseudomonas aeruginosa [26] = assay: Antibacterial activity against IMP-13 producing Pseudomonas aeruginosa clone C2 isolate NA-14X-02 by Etest method
Pseudomonas aeruginosa [27] = assay: Antibacterial activity against VIM-1 producing Pseudomonas aeruginosa clone D2 isolate VA-06X-16 by Etest method
Pseudomonas aeruginosa [28] = assay: Antibacterial activity against VIM-2 producing Pseudomonas aeruginosa clone B2 isolate VA-06X-38 by Etest method
Pseudomonas aeruginosa [29] = assay: Antibacterial activity against VIM-1 producing Pseudomonas aeruginosa clone A3 isolate NA-14X-34 by Etest method
Pseudomonas aeruginosa [30] = assay: Antibacterial activity against VIM-2 producing Pseudomonas aeruginosa clone B3 isolate PV-05X-02 by Etest method
Pseudomonas aeruginosa [31] = assay: Antibacterial activity against VIM-1 producing Pseudomonas aeruginosa clone D2 isolate VA-06X-17 by Etest method
Pseudomonas aeruginosa [32] = assay: Antibacterial activity against nonreplicate Pseudomonas aeruginosa clinical isolate by Etest method
Acinetobacter baumannii = assay: Antibacterial activity against nonreplicate Acinetobacter baumannii clinical isolate by Etest method
Klebsiella pneumoniae = assay: Antibacterial activity against nonreplicate Klebsiella pneumoniae clinical isolate by Etest method
Proteus mirabilis = assay: Antibacterial activity against nonreplicate Proteus mirabilis clinical isolate by Etest method
[33] = Antibacterial activity against nonreplicate Burkholderia cepacia complex clinical isolate by Etest method
Pseudomonas putida [34] = assay: Antibacterial activity against nonreplicate Pseudomonas putida clinical isolate by Etest method
Klebsiella aerogenes = assay: Antibacterial activity against nonreplicate Enterobacter aerogenes clinical isolate by Etest method
Enterobacter cloacae [35] = assay: Antibacterial activity against nonreplicate Enterobacter cloacae clinical isolate by Etest method

Compound: NCC[C@H](O)C(=O)N[C@@H]1C[C@H](N)[C@@H](O[C@H]2O[C@H](CN)[C@@H](O)[C@H](O)[C@H]2O)[C@H](O)[C@H]1O[C@H]1O[C@H](CO)[C@@H](O)[C@H](N)[C@H]1O [AMIKACIN]
- MIC (Pseudomonas aeruginosa [1]): > 128 µg/mL
- MIC (Pseudomonas aeruginosa [2]): 8 µg/mL (≈ 13.7 µM)
- MIC (Pseudomonas aeruginosa [3]): 16 µg/mL (≈ 27.3 µM)
- Activity (Pseudomonas aeruginosa [4]): 50%
- MIC (Pseudomonas aeruginosa [5]): 8 µg/mL (≈ 13.7 µM)
- MIC (Pseudomonas aeruginosa [6]): 8 µg/mL (≈ 13.7 µM)
- MIC (Pseudomonas aeruginosa [7]): > 128 µg/mL
- MIC (Pseudomonas aeruginosa [8]): > 128 µg/mL
- MIC (Pseudomonas aeruginosa [9]): 16 µg/mL (≈ 27.3 µM)
- MIC (Pseudomonas aeruginosa [10]): > 128 µg/mL
- MIC (Pseudomonas aeruginosa [11]): > 128 µg/mL
- MIC (Pseudomonas aeruginosa [12]): > 128 µg/mL
- MIC (Pseudomonas aeruginosa [13]): 16 µg/mL (≈ 27.3 µM)
- MIC (Pseudomonas aeruginosa [14]): > 128 µg/mL
- MIC (Enterobacter cloacae [15]): 24 µg/mL (≈ 41 µM)
- MIC (Pseudomonas aeruginosa [16]): 16 µg/mL (≈ 27.3 µM)
- MIC (Pseudomonas putida [17]): 1 µg/mL (≈ 1.71 µM)
- MIC (Pseudomonas aeruginosa [18]): 8 µg/mL (≈ 13.7 µM)
- MIC (Pseudomonas aeruginosa [19]): 8 µg/mL (≈ 13.7 µM)
- MIC (Pseudomonas aeruginosa [20]): 24 µg/mL (≈ 41 µM)
- MIC (Pseudomonas aeruginosa [21]): 24 µg/mL (≈ 41 µM)
- MIC (Pseudomonas aeruginosa [22]): > 128 µg/mL
- MIC (Pseudomonas aeruginosa [23]): 8 µg/mL (≈ 13.7 µM)
- MIC (Pseudomonas aeruginosa [24]): 8 µg/mL (≈ 13.7 µM)
- MIC (Pseudomonas aeruginosa [25]): 32 µg/mL (≈ 54.6 µM)
- MIC (Pseudomonas aeruginosa [26]): 16 µg/mL (≈ 27.3 µM)
- MIC (Pseudomonas aeruginosa [27]): 8 µg/mL (≈ 13.7 µM)
- MIC (Pseudomonas aeruginosa [28]): > 128 µg/mL
- MIC (Pseudomonas aeruginosa [29]): 24 µg/mL (≈ 41 µM)
- MIC (Pseudomonas aeruginosa [30]): > 128 µg/mL
- MIC (Pseudomonas aeruginosa [31]): 8 µg/mL (≈ 13.7 µM)

Compound: C[C@@H](O)[C@H]1C(=O)N2C(C(=O)O)=C(SCCNC=N)C[C@H]12 [IMIPENEM ANHYDROUS]
- MIC (Pseudomonas aeruginosa [32]): 8 µg/mL (≈ 26.7 µM)
- MIC (Pseudomonas aeruginosa [1]): > 32 µg/mL
- MIC (Pseudomonas aeruginosa [2]): > 16 µg/mL
- MIC (Pseudomonas aeruginosa [3]): > 32 µg/mL
- MIC (Pseudomonas aeruginosa [5]): > 32 µg/mL
- MIC (Pseudomonas aeruginosa [6]): > 32 µg/mL
- MIC (Pseudomonas aeruginosa [7]): > 32 µg/mL
- MIC (Pseudomonas aeruginosa [8]): > 32 µg/mL
- MIC (Pseudomonas aeruginosa [9]): > 32 µg/mL
- MIC (Pseudomonas aeruginosa [10]): > 32 µg/mL
- MIC (Acinetobacter baumannii): 4 µg/mL (≈ 13.4 µM)
- MIC (Pseudomonas aeruginosa [11]): > 32 µg/mL
- MIC (Pseudomonas aeruginosa [12]): > 32 µg/mL
- MIC (Klebsiella pneumoniae): 2 µg/mL (≈ 6.68 µM)
- MIC (Pseudomonas aeruginosa [13]): > 32 µg/mL
- MIC (Pseudomonas aeruginosa [14]): > 32 µg/mL
- MIC (Enterobacter cloacae [15]): 4 µg/mL (≈ 13.4 µM)
- MIC (Pseudomonas aeruginosa [16]): > 32 µg/mL
- MIC (Proteus mirabilis): 8 µg/mL (≈ 26.7 µM)
- MIC (Pseudomonas putida [17]): > 32 µg/mL
- MIC (Pseudomonas aeruginosa [18]): > 32 µg/mL
- MIC (Pseudomonas aeruginosa [19]): > 32 µg/mL
- MIC (Pseudomonas aeruginosa [20]): > 32 µg/mL
- MIC (Pseudomonas aeruginosa [21]): > 32 µg/mL
- MIC [33]: 8 µg/mL (≈ 26.7 µM)
- MIC (Pseudomonas aeruginosa [22]): > 32 µg/mL
- MIC (Pseudomonas aeruginosa [23]): > 32 µg/mL
- MIC (Pseudomonas putida [34]): 16 µg/mL (≈ 53.4 µM)
- MIC (Pseudomonas aeruginosa [24]): > 32 µg/mL
- MIC (Pseudomonas aeruginosa [25]): > 32 µg/mL
- MIC (Pseudomonas aeruginosa [26]): > 32 µg/mL
- MIC (Pseudomonas aeruginosa [27]): > 32 µg/mL
- MIC (Pseudomonas aeruginosa [28]): > 32 µg/mL
- MIC (Pseudomonas aeruginosa [29]): > 32 µg/mL
- MIC (Klebsiella aerogenes): 16 µg/mL (≈ 53.4 µM)
- MIC (Enterobacter cloacae [35]): 4 µg/mL (≈ 13.4 µM)
- MIC (Pseudomonas aeruginosa [30]): > 32 µg/mL
- MIC (Pseudomonas aeruginosa [31]): > 32 µg/mL

Compound: COLISTIN
- MIC (Pseudomonas aeruginosa [1]): 0.5 µg/mL
- MIC (Pseudomonas aeruginosa [2]): 2 µg/mL
- MIC (Pseudomonas aeruginosa [3]): 0.5 µg/mL
- MIC (Pseudomonas aeruginosa [5]): 1 µg/mL
- MIC (Pseudomonas aeruginosa [6]): 0.5 µg/mL
- MIC (Pseudomonas aeruginosa [7]): 1 µg/mL
- MIC (Pseudomonas aeruginosa [8]): 1 µg/mL
- MIC (Pseudomonas aeruginosa [9]): 0.5 µg/mL
- MIC (Pseudomonas aeruginosa [10]): 2 µg/mL
- MIC (Pseudomonas aeruginosa [11]): 1 µg/mL
- MIC (Pseudomonas aeruginosa [12]): 2 µg/mL
- MIC (Pseudomonas aeruginosa [13]): 0.5 µg/mL
- MIC (Pseudomonas aeruginosa [14]): 2 µg/mL
- MIC (Enterobacter cloacae [15]): 0.25 µg/mL
- MIC (Pseudomonas aeruginosa [16]): 0.5 µg/mL
- MIC (Pseudomonas putida [17]): 0.25 µg/mL
- MIC (Pseudomonas aeruginosa [18]): 1 µg/mL
- MIC (Pseudomonas aeruginosa [19]): 1 µg/mL
- MIC (Pseudomonas aeruginosa [20]): 2 µg/mL
- MIC (Pseudomonas aeruginosa [21]): 2 µg/mL
- MIC (Pseudomonas aeruginosa [22]): 2 µg/mL
- MIC (Pseudomonas aeruginosa [23]): 1 µg/mL
- MIC (Pseudomonas aeruginosa [24]): 1 µg/mL
- MIC (Pseudomonas aeruginosa [25]): 2 µg/mL
- MIC (Pseudomonas aeruginosa [26]): 0.5 µg/mL
- MIC (Pseudomonas aeruginosa [27]): 1 µg/mL
- MIC (Pseudomonas aeruginosa [28]): 1 µg/mL
- MIC (Pseudomonas aeruginosa [29]): 2 µg/mL
- MIC (Pseudomonas aeruginosa [30]): 1 µg/mL
- MIC (Pseudomonas aeruginosa [31]): 1 µg/mL

- MIC (Pseudomonas putida [17]): 0.06 µg/mL (≈ 0.181 µM)
Compound: O=C(O)c1cn(C2CC2)c2cc(N3CCNCC3)c(F)cc2c1=O [CIPROFLOXACIN]

— ChEMBL document CHEMBL1275557, “First countrywide survey of acquired metallo-beta-lactamases in gram-negative pathogens in Italy” (2008)
